According to patent publication EP0807624B1, “RETINOIC ACID DERIVATIVES” (THE SALK INSTITUTE FOR BIOLOGICAL STUDIES, priority 1991, dated 1993):

Key:
RXR-β = biological target: T1, RXR-β (Mus musculus, UniProt P28704); test: Cotransfection assay in CV-1 cells; format: cell-based; conditions: RXRβ; maximal response relative to retinoic acid at 10^-5 M
T1 sequence (P28704 1-520): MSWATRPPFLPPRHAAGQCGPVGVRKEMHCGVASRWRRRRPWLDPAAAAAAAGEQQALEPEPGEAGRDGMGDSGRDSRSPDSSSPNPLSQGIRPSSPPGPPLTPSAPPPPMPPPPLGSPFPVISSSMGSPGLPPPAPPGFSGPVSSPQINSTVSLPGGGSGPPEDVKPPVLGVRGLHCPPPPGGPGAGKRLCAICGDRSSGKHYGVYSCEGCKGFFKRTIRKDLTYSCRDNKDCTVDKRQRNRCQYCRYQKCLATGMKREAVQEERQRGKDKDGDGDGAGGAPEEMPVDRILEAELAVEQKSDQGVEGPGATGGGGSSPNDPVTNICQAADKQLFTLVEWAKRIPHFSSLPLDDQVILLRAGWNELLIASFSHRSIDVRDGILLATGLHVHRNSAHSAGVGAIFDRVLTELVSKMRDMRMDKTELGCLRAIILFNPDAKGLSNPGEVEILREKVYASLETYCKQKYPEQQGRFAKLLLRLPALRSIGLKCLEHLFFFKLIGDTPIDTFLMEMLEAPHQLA

RAR-γ = test: Cotransfection assay in CV-1 cells; format: cell-based, human; conditions: RARγ; maximal response relative to retinoic acid at 10^-5 M
RXR-γ = biological target: T2, RXR-γ (Mus musculus, UniProt P28705); test: Cotransfection assay in CV-1 cells; format: cell-based; conditions: RXRγ; maximal response relative to retinoic acid at 10^-5 M
T2 sequence (P28705 1-463): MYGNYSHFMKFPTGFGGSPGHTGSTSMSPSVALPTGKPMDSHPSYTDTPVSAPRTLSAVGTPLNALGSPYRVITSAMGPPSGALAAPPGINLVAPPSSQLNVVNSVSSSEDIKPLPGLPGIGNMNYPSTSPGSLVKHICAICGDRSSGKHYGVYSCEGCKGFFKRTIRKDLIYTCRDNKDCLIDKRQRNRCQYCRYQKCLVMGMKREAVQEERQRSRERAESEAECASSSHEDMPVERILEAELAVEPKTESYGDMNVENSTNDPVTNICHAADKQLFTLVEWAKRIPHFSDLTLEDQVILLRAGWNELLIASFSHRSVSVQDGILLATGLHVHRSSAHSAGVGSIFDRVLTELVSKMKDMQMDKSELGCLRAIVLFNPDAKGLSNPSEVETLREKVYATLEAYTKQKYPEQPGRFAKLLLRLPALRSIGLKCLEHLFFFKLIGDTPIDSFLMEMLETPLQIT

RAR-α = test: Cotransfection assay in CV-1 cells; format: cell-based, human; conditions: RARα; maximal response relative to retinoic acid at 10^-5 M
RAR-β = test: Cotransfection assay in CV-1 cells; format: cell-based, human; conditions: RARβ; maximal response relative to retinoic acid at 10^-5 M
RXR-α = test: Cotransfection assay in CV-1 cells; format: cell-based, human; conditions: RXRα; maximal response relative to retinoic acid at 10^-5 M
[1] = system: normal human epidermal keratinocytes (NHEK534 cell line); test: cells; conditions: Keratinocyte, read-out: EC50 for inhibition of differentiation
[2] = system: murine melanoma cell line Clone M3; test: In vitro proliferation of melanoma cell line; conditions: Mus musculus, read-out: % Growth inhibition
[3] = system: human primary metastatic melanoma cell line c81-46c; test: In vitro proliferation of melanoma cell line; format: cell-based; conditions: read-out: % Growth inhibition; for inhibition at 0.01 µM: 0.01 µM added; for inhibition at 1 µM: 1 µM added
HL60 cells = test: cells; conditions: Homo sapiens, HL-60, 144 h, read-out: EC-50 for differentiation, as determined by NBT
HL60R cells = test: Differentiation of HL60R cells (NBT); format: cell-based; conditions: concentrations up to 10 µM

Row | Efficacy (RXR-β) [%] | Efficacy (RXR-γ) [%] | Structure (SMILES) | Efficacy (RAR-γ) [%] | Efficacy (RAR-α) [%] | Efficacy (RAR-β) [%] | Efficacy (RXR-α) [%] | EC50 [1] [nM] | inhibition at 0.01 µM [2] [%] | inhibition at 1 µM [2] [%] | inhibition at 0.01 µM [3] [%] | inhibition at 1 µM [3] [%] | EC50 (HL60 cells) [nM] | differentiation (NBT) of HL60R cells (HL60R cells)
1 | 105 | 133 | CC1=C(/C=C/C(C)=C\C=C\C(C)=C\C(=O)O)C(C)(C)CCC1=O [4-keto-9-cis-retinoic acid] | – | – | – | 104 | – | – | – | – | – | – | –
2 | 88 | 77 | CC1=C(/C=C/C(=C\C=C\C(C)=C\C(=O)O)c2ccccc2)C(C)(C)CCC1 [9-phenyl-9-cis-retinoic acid] | 59 | <2 | 39 | 76 | – | – | – | – | – | – | –

More lines, now with the values behind:

Row | Structure (SMILES) | Efficacy (RXR-β) [%] | Efficacy (RXR-γ) [%] | Efficacy (RAR-γ) [%] | Efficacy (RAR-α) [%] | Efficacy (RAR-β) [%] | Efficacy (RXR-α) [%] | EC50 [1] [nM] | inhibition at 0.01 µM [2] [%] | inhibition at 1 µM [2] [%] | inhibition at 0.01 µM [3] [%] | inhibition at 1 µM [3] [%] | EC50 (HL60 cells) [nM] | differentiation (NBT) of HL60R cells (HL60R cells)
3 | CC1=C(/C=C/C(C)=C\C=C\C(C)=C\C(=O)O)C(C)(C)CCC1O (stereo not drawn) [4-hydroxy-9-cis-retinoic acid] | 143 | 115 | 81 | 65 | 71 | – | – | – | – | – | – | – | –
4 | CC1=C(/C=C/C(C)=C\C=C\C(C)=C\C(=O)O)C(C)(C)CCC1 [9-cis-retinoic acid] | – | – | – | – | – | – | 20 ± 2.8 | -49 | -85 | -28 | -45 | – | –
5 | CC1=C(/C=C/C(C)=C/C=C/C(C)=C/C(=O)O)C(C)(C)CCC1 [all-trans-retinoic acid] | – | – | – | – | – | – | 20 ± 2.8 | – | – | -17 | -44 | 2000 | resistant to differentiation
